Test results: US8865448B2, “Aspergillus containing beta-glucosidase, beta-glucosidases and nucleic acids encoding the same” (Cleanvantage LLC, priority 2010, dated 2014)

Legend:
[1] = biological target: T1, Aspergillus saccharolyticus CBS 127449 beta-glucosidase BGL1, his-tagged, expressed in T. reesei, SEQ ID NO: 3 (without signal peptide SEQ ID NO: 4) (Aspergillus saccharolyticus, UniProt G0X2F9); experiment: Glucose inhibition, purified BGL1; type: biochemical; settings: pNPG as substrate (5 mM), 50° C., pH 4.8
T1 construct: mature form lacks signal peptide 1-19
T1 sequence (G0X2F9 20-860): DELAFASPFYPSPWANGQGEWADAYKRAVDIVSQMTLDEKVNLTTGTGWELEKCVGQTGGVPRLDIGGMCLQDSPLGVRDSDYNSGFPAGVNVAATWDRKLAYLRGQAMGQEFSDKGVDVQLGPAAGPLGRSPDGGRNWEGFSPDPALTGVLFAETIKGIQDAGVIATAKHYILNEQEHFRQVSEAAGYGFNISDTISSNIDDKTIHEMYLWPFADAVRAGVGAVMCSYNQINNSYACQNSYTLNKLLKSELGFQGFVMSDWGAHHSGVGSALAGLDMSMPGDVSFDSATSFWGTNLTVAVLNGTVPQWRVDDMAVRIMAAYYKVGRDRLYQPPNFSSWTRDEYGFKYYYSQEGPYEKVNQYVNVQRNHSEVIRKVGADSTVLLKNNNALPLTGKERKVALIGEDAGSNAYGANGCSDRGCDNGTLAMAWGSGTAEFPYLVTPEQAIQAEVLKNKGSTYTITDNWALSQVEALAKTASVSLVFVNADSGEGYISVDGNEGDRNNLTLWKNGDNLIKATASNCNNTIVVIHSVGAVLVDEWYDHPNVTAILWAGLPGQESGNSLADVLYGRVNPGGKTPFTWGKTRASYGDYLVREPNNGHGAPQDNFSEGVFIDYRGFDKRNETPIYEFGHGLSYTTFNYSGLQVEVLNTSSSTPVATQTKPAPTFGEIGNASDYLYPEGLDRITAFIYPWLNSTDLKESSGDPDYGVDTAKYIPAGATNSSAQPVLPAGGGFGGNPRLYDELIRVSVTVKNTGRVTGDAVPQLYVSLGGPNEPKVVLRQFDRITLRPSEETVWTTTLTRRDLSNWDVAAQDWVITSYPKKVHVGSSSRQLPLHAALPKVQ
Protocol: (§1) For testing glucose tolerance, 5 mM pNPG in NaCltrate buffer pH 4.8 was used as substrate with different glucose amounts added, ranging final glucose concentrations of 0-280 mM. The remaining activity (glucose tolerance) was measured spectrophotometrically by release of pNP at 50° C. reaction conditions, as described earlier. Triple determinations were performed. […] Triple determinations were performed.
The his-tagged beta-glucosidases were purified on the ÄKTApurifier system with UNICORN software, using a HisTrap HP 5 ml […] column (GE Healthcare), run at a flow rate of 5 ml/min. The column was equilibrated with 5CV of binding buffer (20 mM sodium phosphate, 0.5M NaCl, pH 7.4), 100 ml sample was loaded onto the column, followed by washing with binding buffer till the absorbance reached the baseline. The his-tagged beta-glucosidases were eluted with 3CV elution buffer (20 mM sodium phosphate, 0.5M NaCl, 500 mM imidazole, pH 7.4) and the peak (1 CV) collected by monitoring the absorbance.
(§2) Michaelis Menten kinetics, glucose tolerance, termostability, pH optimum, and cellodextrin hydrolysis were carried out as described in EXAMPLE 1.

[2] = system: Cellic CTec beta-glucosidases, commercial preparation; experiment: Glucose tolerance / product inhibition, Cellic CTec; type: biochemical
Protocol: as §1

[3] = system: Aspergillus saccharolyticus (strain AP, CBS 127449) beta-glucosidases, crude enzyme extract; experiment: Glucose tolerance / product inhibition, crude extract of strain AP; type: biochemical
Protocol: The fungal strain AP/Aspergillus saccharolyticus was grown on potato dextrose agar (Sigma) for sporulation. Spores were harvested after 7 days of growth by adding sterile water to the plate and scrape on the surface of the culture. The heavy spore suspension was filtered through Myra cloth. Two ml of the spore solution was inoculated into 200 ml seed medium (2.0 g/l wheat bran, 5 g/l corn steep powder, 0.25 g/l yeast extract, 0.75 g/l peptone, 1.4 g/l (NH4)2SO4, 2.0 g/l KH2PO4, 0.4 g/l CaCl2 2H2O, 0.3 g/l MgSO4H2O, 5.0 mg/l FeSO4, 1.6 mg/l MnSO4 7H2O, 1.4 mg/l ZnSO4 7H2O, 2.0 CoCl2 6H2O) in an 500 ml Erlenmeyer flask, and incubated at 30° C. for 2 days, shaking at 160 rpm. Solid state fermentation at approximately 30% TS was carried out adding 100 ml of the cultivated seed medium to 1 l of a solid state fermentation medium comprising of 343 g wheat bran (TS of 87.4%), 9 g corn steep powder, 557 ml Czapek liquid (3 g/l NaNO3, 1 g/l K2HPO4, 0.5 g/l KCl, 0.5 g/l MgSO4 7H2O, 0.01 g/l FeSO4 7H2O) (Samson et al., 2004a). […] The samples were incubated at 30° C. without shaking. After 7 days incubation, liquid was extracted from the medium by pressing the medium by hand using gloves. The extract was centrifuged at 10000 g, and the supernatant filtered through Whatman filter paper.
[…] The remaining activity (glucose tolerance) was measured spectrophotometrically by release of pNP at 50° C. reaction conditions, as described earlier. Triple determinations were performed. […] Triple determinations were performed.

[4] = system: Novozym 188 beta-glucosidase (Aspergillus niger), commercial preparation; experiment: Glucose tolerance / product inhibition, Novozym 188; type: biochemical
Protocol: as §1

[5] = substrate: OC[C@H]1O[C@@H](O[C@H]2[C@H](O)[C@@H](O)C(O)O[C@@H]2CO)[C@H](O)[C@@H](O)[C@@H]1O; experiment: purified protein, by the assay type; settings: other: cellobiose as substrate, 50° C., pH 4.8, Hanes plot
[6] = Thermostability: remaining beta-glucosidase activity after incubation at different temperatures; type: physicochemical
Protocol: For testing the thermostability of the enzyme extract, aliquots of the extracts were incubated in PCR tubes in a thermocycler with temperature gradient option at 12 different temperatures from 48.5 to 67.0° C. for different time periods (0-4 hours) followed by assaying the activity at 50° C. with 5 mM pNPG in NaCltrate buffer pH 4.8 as substrate. The rate of denaturation, kD, was calculated as the slope of a semi-logaritmic plot of remaining activity vs incubation time. The half life was calculated as: T1/2=ln(2)/kD.
as §2

[7] = pH profile of beta-glucosidase activity on pNPG; type: biochemical; settings: 50 C
Protocol: For testing the pH optimum of the enzyme extracts, they were assayed at 50° C. with 5 mM pNPG in Citrate Phosphate buffer at different pH ranging from 2.65 to 7.25. Endoglucanase activity of Celluclast 1.5 L was assayed with AZO-CMC as described by the manufacturer (Megazyme), but testing the same pH range 2.65-7.25 as for the pNPG assay.
as §2

[8] = Hydrolysis of cellodextrins (cellohexaose); type: biochemical; settings: 50 C, pH 4.8, 30 min time course
Protocol: Hydrolysis of cellohexaose was carried out by mixing, in the ratio 1:1, 0.2 mM cellohexaose in 50 mM NaCltrate buffer pH 4.8 and enzyme diluted in 50 mM NaCltrate buffer pH 4.8 to a concentration of 3.7 μg/ml. The reaction was incubated at 50° C. and for a period of 30 min, 100 μl sample was placed on ice every 5 min. 100 μl 200 mM NaOH was added to terminate the reaction, and after another 1 fold dilution with 100 mM NaOH, the samples were analyzed at Dionex ICS3000 using gradient elution: 0-30% eluent B in 26 min followed by 2 min washing with 50% eluent B (0.5 M NaAcetate in 100 mM NaOH) and 5 min re-equilibrating with 100% eluent A (100 mM NaOH).
as §2

[9] = pNPG as substrate, product concentration 12 times higher than the substrate concentration
[10] = cellobiose as substrate, product and substrate in equal concentrations
[11] = cellobiose as substrate, twice the concentration of glucose compared to cellobiose

Molecule: OC[C@H]1OC(O)[C@H](O)[C@@H](O)[C@@H]1O (stereo partly drawn) [glucose]
- product (glucose) concentration at reduction in activity to 50% [1]: 30 times greater than the substrate concentration
- glucose concentration at half the maximum activity, relative to substrate concentration ([2]; 5 mM pNPG as substrate): 23 × the substrate concentration
- remaining activity with glucose [2, 9]: approx 75%
- glucose concentration at half the maximum activity, relative to substrate concentration ([3]; 5 mM pNPG as substrate): 36 × the substrate concentration
- remaining activity with glucose [3, 10]: around 80%
- remaining activity with glucose [3, 11]: 50%
- remaining activity with glucose [3, 9]: > 80%
- glucose concentration at half the maximum activity, relative to substrate concentration ([4]; 5 mM pNPG as substrate): 12 × the substrate concentration
- IC50 ([4]; 5 mM pNPG as substrate, 50° C., pH 4.8, calculated, read-out: glucose concentration at half the maximum activity): 60 mM
- remaining activity with glucose [4, 10]: around 80%
- remaining activity with glucose [4, 11]: 50%
- remaining activity with glucose [4, 9]: below 40%

B1: Aspergillus saccharolyticus CBS 127449 beta-glucosidase BGL1, his-tagged, expressed in T. reesei, SEQ ID NO: 3 (without signal peptide SEQ ID NO: 4) … (protein)
chain: T1 sequence (G0X2F9 20-860)
- Km [5]: 1900 µM

B2: BGL1: GH family 3 beta-glucosidase of Aspergillus saccharolyticus; his-tagged, expressed in T. reesei and purified for characterisation (protein, listed as Aspergillus saccharolyticus)
chain: T1 sequence (G0X2F9 20-860)
modifications: His tag
notes: GH family 3 beta-glucosidase of Aspergillus saccharolyticus; his-tagged, expressed in T. reesei and purified for characterisation
- activity retained after 2 hours of incubation ([6]; 60 C): more than 90%
- activity retained after 4 hours of incubation ([6]; 60 C): more than 70%
- activity retained after 2 hours of incubation ([6]; 67 C): approx. 10%
- stability at 50 C ([6]; purified BGL1): stable throughout the incubation period
- half-life ([6]; purified BGL1, from 62 C up to 65 C): less than 2.5 hours
- calculated half-life ([6]; purified BGL1, temperatures above 60 C): approximately 6 hours
- stability at temperatures up to 58 C ([6]; up to four hours of incubation): fairly stable
- activity at basic conditions [7]: below 10%
- activity within pH range 3.8-4.8 [7]: above 90 % of maximum
- pH optimum [7]: ~4.2 pH
- mode of action in hydrolysis of cellohexaose [8]: hydrolyzes the different cellodextrins through exohydrolase action
